Settings: mouse
Method: All animal experiments were reviewed and approved by Institutional Animal Care and Use Committee (ICAUC; protocol 15-1248R) at Northeastern University (Boston, MA, USA). […] Anesthesia was achieved by isoflurane (2.5%) inhalation, followed by SC buprenorphine (0.02-0.05 mg/kg) administration. After inducing anesthesia, cryogels (4% total polymer concentration (w/v), 4×4×1 mm) were implanted via injection using a sterile 18-gauge needle.
The cryogels sterilized in 70% ethanol (v/v) for 20 minutes and under UV light. Cryogels were loaded into sterile syringes and sterile 18G needles. […] After 21 days post-implantation, animals were euthanized and the cryogels were retrieved along with the surrounding tissues for histological assessment, and placed in cold DPBS. Hydrogels used for biodegradation studies were thoroughly washed in distilled water, and excess tissue was carefully removed under a dissection microscope.
After explantation, samples were fixed in paraformaldehyde (4% v/v)) for 4 h, followed by overnight incubation in 30% sucrose (30% w/v) at 4° C. Samples were then embedded in OCT and flash frozen in liquid nitrogen. Frozen samples were sectioned using a Leica Biosystems CM3050 S Research Cryostat. 14-μm cryosections were obtained and mounted in positively charged slides using DPX mountant medium (Sigma). Slides were then processed for hematoxylin and eosin staining (Sigma) according to instructions from the manufacturer. Immunohistofluorescent staining was performed on mounted cryosections as previously reported.^15 Anti-CD3 [SP7] (ab16669), anti-CD206 (ab125212), anti-F480 were used as primary antibodies, and an Alexa Fluor 594-conjugated secondary antibody (Invitrogen) was used for detection. All sections were counterstained with DAPI (Invitrogen), and visualized on an AxioObserver Z1 inverted microscope.
In vivo injectability, bioadhesion, and immunohistology. Lastly, we characterized the in vivo biodegradation of HAGM and HPD cryogels, including their interactions with native tissues via subcutaneous implantation in a murine animal model. Sterile composite cryogels (HAGM and HPD, 4×4×1 mm) were suspended in 0.2 mL of PBS and were injected subcutaneously in the backs of C57BL/6J mice. After 21 days post-implantation, the mice were euthanized prior to cryogel retrieval, along with adjacent tissue. […] Explanted samples were then flash-frozen at an optimal cutting temperature (OCT) compound, cryosectioned into 14-μm slices, and mounted onto glass slides for histological examination.

- macrophage infiltration (CD206 and F480) (in vivo): some macrophages
- in vivo biodegradation (visual inspection) (sc): no biodegradation
Substance: hyaluronic acid methacrylate [HAGM]
- H&E staining, cell migration into explanted cryogels (in vivo): migration of predominantly non-inflammatory cells
- lymphocyte/leukocyte infiltration (CD3) (in vivo): no significant local lymphocyte infiltration
- tissue integration and immunocytotoxicity (in vivo, sc): high tissue integration with no immunocytoxicity

— patent US11850325B2, “Injectable, bioadhesive cryogel scaffolds for biomedical uses” (Northeastern University, priority 2019, dated 2023)
